ChEMBL document CHEMBL1141781, “Antineoplastic agents. 542. Isolation and structure of sesterstatin 6 from the Indian Ocean sponge Hyrtios erecta” (2005)
≈ marks a conversion by molar mass, not a printed value.

What was measured:
Format in all cases: functional
FaDu = assay: Growth inhibition of human FADU cells
SW-1736 = assay: Growth inhibition of human SW1736 cells
[1] = Growth inhibition of human KAT4 cells; conditions: KAT-4
P388 = assay: Growth inhibition of mouse P388 cells; conditions: read-out: ED50 (the source's name)
DU-145 = assay: Growth inhibition of human DU145 cells
NCI-H460 = assay: Growth inhibition of human NCI-H460 cells
BXPC-3 = assay: Growth inhibition of human BxPC3 cells
U-251 = assay: Growth inhibition of human U251 cells
RPMI-7951 = assay: Growth inhibition of human RPMI7951 cells

Row | Compound | GI50 (FaDu) [µg/mL] | GI50 (SW-1736) [µg/mL] | GI50 [1] [µg/mL] | EC50 (P388) [µg/mL] | GI50 (DU-145) [µg/mL] | GI50 (NCI-H460) [µg/mL] | GI50 (BXPC-3) [µg/mL] | GI50 (U-251) [µg/mL] | GI50 (RPMI-7951) [µg/mL]
1 | CC1(C)CCC[C@]2(C)[C@H]3C[C@@H](O)[C@]4(C)C5=C(C(=O)O[C@H]5O)[C@@H](O)C[C@H]4[C@]3(C)CC[C@@H]12 [SESTERSTATIN 6] | 0.89 (≈ 2.13 µM) | 0.87 (≈ 2.08 µM) | 0.4 (≈ 0.956 µM) | 0.17 (≈ 0.406 µM) | 0.37 (≈ 0.884 µM) | 0.18 (≈ 0.43 µM) | 0.44 (≈ 1.05 µM) | – | –
2 | CC1(C)CCC[C@]2(C)[C@H]3C[C@@H](O)[C@]4(C)c5cocc5[C@@H](O)C[C@H]4[C@]3(C)CC[C@@H]12 [SESTERSTATIN 5] | 1.9 (≈ 4.91 µM) | – | – | > 10 | 1.9 (≈ 4.91 µM) | 2.5 (≈ 6.47 µM) | 2.2 (≈ 5.69 µM) | 1.9 (≈ 4.91 µM) | 2.1 (≈ 5.43 µM)
3 | CC1(C)[C@@H](O)CC[C@]2(C)[C@H]3C[C@@H](O)[C@]4(C)C5=C(CC[C@H]4[C@]3(C)CC[C@@H]12)COC5=O [SESTERSTATIN 1] | – | – | – | 0.46 (≈ 1.14 µM) | – | – | – | – | –
4 | C[C@]1(CO)CCC[C@]2(C)[C@H]3C[C@@H](O)[C@]4(C)C5=C(CC[C@H]4[C@]3(C)CC[C@@H]12)COC5=O [SESTERSTATIN 2] | – | – | – | 4.2 (≈ 10.4 µM) | – | – | – | – | –
5 | CC1(C)CCC[C@]2(C)[C@H]3C[C@@H](O)[C@]4(C)c5cocc5[C@H](O)C[C@H]4[C@]3(C)CC[C@@H]12 [SESTERSTATIN 4] | 2 (≈ 5.17 µM) | 2.1 (≈ 5.43 µM) | 2 (≈ 5.17 µM) | 4.9 (≈ 12.7 µM) | 1.6 (≈ 4.14 µM) | 1.8 (≈ 4.66 µM) | 1.6 (≈ 4.14 µM) | – | –
6 | C[C@@]1(CO)CCC[C@]2(C)[C@H]3C[C@@H](O)[C@]4(C)C5=C(CC[C@H]4[C@]3(C)CC[C@@H]12)COC5=O [SESTERSTATIN 3] | – | – | – | 4.3 (≈ 10.7 µM) | – | – | – | – | –
